Measurements as given in US10118902B2 (Sanford Burnham Prebys Medical Discovery Institute, priority 2014, dated 2018).

Molecular target: neurotensin receptor 1 (NTR1) (Homo sapiens (Human), UniProt P30989)
Assay: NTR1 dose response, high-content imaging beta-arrestin-GFP assay in NTR1-U2OS cells
Assay type: cell-based
Details: read-out: EC50

neurotensin receptor 1 (NTR1), sequence (P30989 whole entry, species assumed): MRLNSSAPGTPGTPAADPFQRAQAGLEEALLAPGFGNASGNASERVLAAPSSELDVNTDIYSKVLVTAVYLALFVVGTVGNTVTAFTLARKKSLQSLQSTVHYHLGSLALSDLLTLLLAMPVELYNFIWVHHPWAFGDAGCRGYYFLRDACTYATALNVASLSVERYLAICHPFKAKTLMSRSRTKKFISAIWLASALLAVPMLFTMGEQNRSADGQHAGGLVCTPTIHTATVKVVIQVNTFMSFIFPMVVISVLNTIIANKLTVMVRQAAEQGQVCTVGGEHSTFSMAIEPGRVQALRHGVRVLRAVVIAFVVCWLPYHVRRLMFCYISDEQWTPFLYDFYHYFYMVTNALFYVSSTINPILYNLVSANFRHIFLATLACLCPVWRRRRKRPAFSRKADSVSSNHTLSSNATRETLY

EC50 [µM]	Structure (SMILES)
2 to 10	COc1ccccc1C1CCN(c2nc(C3(F)CCC3)nc3c(Cl)cc(N4CC[C@H](O)C4)cc23)CC1 [Example 183]
> 10	COC1CCCC1N1CCN(c2nc(C3CC3)nc3ccc(N(C)CCO)cc23)CC1 (centres unmarked) [Example 184, 2-({2-Cyclopropyl-4-[4-(2-methoxy-cyclopentyl)-piperazin-1-yl]-quinazolin-6-yl}-methyl-amino)-ethanol]
> 10	CCCN(C)c1ccc2nc(C3CC3)nc(N3CCN(C4CCCC4OC)CC3)c2c1 (centres unmarked) [Example 185, 2-cyclopropyl-4-(4-(2-methoxycyclopentyl)piperazin-1-yl)-N-methyl-N-propylquinazolin-6-amine]
> 10	COC1CCCCC1C1CCN(c2nc(C3(F)CC3)nc3ccc(N(C)CCO)cc23)CC1 (centres unmarked) [Example 189, 2-({2-(1-Fluoro-cyclopropyl)-4-[4-(2-methoxy-cyclohexyl)-piperidin-1-yl]-quinazolin-6-yl}-methyl-amino)-ethanol]
2 to 10	COc1ccsc1C1CCN(c2nc(C3CC3)nc3ccc(N(C)CCO)cc23)CC1 [Example 190, 2-({2-Cyclopropyl-4-[4-(3-methoxy-thiophen-2-yl)-piperidin-1-yl]-quinazolin-6-yl}-methyl-amino)-ethanol]
2 to 10	COc1ccccc1C1CCN(c2nc(C#CC3CC3)nc3ccc(N(C)CCO)cc23)CC1 [Example 191, 2-({2-Cyclopropylethynyl-4-[4-(2-methoxy-phenyl)-piperidin-1-yl]-quinazolin-6-yl}-methyl-amino)-ethanol]
0.5 to 2	COc1ccccc1C1CCN(c2nc(C3CC3)nc3cnc(N(C)CCN4CCOCC4)cc23)CC1 [Example 194, 2-cyclopropyl-4-(4-(2-methoxyphenyl)piperidin-1-yl)-N-methyl-N-(2-morpholinoethyl)pyrido[3,4-d]pyrimidin-6-amine]
< 0.5	COc1ccccc1C1CCN(c2nc(C3(F)CC3)nc3cnc(N(C)CCO)cc23)CC1 [Example 195, 2-({2-(1-Fluoro-cyclopropyl)-4-[4-(2-methoxy-phenyl)-piperidin-1-yl]-pyrido[3,4-d]pyrimidin-6-yl}-methyl-amino)-ethanol]
0.5 to 2	COc1ccccc1C1CCN(c2nc(C3(F)CC3)nc3cnc(N4CC[C@H](O)C4)cc23)CC1 [Example 196, 1-{2-(1-Fluoro-cyclopropyl)-4-[4-(2-methoxy-phenyl)-piperidin-1-yl]-pyrido[3,4-d]pyrimidin-6-yl}-pyrrolidin-3-ol]
0.5 to 2	COc1ccccc1C1CCN(c2nc(C3(F)CC3)nc3cnc(N4CC[C@@H](O)C4)cc23)CC1 [Example 197, 1-{2-(1-Fluoro-cyclopropyl)-4-[4-(2-methoxy-phenyl)-piperidin-1-yl]-pyrido[3,4-d]pyrimidin-6-yl}-pyrrolidin-3-ol]
2 to 10	COc1ccccc1C1CCN(c2nc(C3(F)CCC3)nc3cnc(N(C)CCO)cc23)CC1 [Example 198, 2-({2-(1-Fluoro-cyclobutyl)-4-[4-(2-methoxy-phenyl)-piperidin-1-yl]-pyrido[3,4-d]pyrimidin-6-yl}-methyl-amino)-ethanol]
2 to 10	COc1ccccc1C1CCN(c2nc(C3(F)CCC3)nc3cnc(N4CC[C@@H](O)C4)cc23)CC1 [Example 199, 1-{2-(1-Fluoro-cyclobutyl)-4-[4-(2-methoxy-phenyl)-piperidin-1-yl]-pyrido[3,4-d]pyrimidin-6-yl}-pyrrolidin-3-ol]
2 to 10	COc1ccccc1C1CCN(c2nc(C3(F)CCC3)nc3cnc(N4CC[C@H](O)C4)cc23)CC1 [Example 200, 1-{2-(1-Fluoro-cyclobutyl)-4-[4-(2-methoxy-phenyl)-piperidin-1-yl]-pyrido[3,4-d]pyrimidin-6-yl}-pyrrolidin-3-ol]

Structure (SMILES)	EC50 [µM]
COc1ccccc1C1CCN(c2nc(OC3CCC3)nc3ccc(N(C)CCO)cc23)CC1 [Example 193, 2-((2-cyclobutoxy-4-(4-(2-methoxyphenyl)piperidin-1-yl)quinazolin-6-yl)(methyl)amino)ethanol]	0.5 to 2
